Results taken from patent US20110172147A1, “NEUROPEPTIDE-2 RECEPTOR (Y-2R) AGONISTS” (priority 2009, published 2011).
*1 amine or outer side, *2 acyl side, *3 side chain or, on linkers, in order; H or OH if unused. Where a SMILES comes first, the peptide text is derived from it. [ ]: non-standard residue; d: D form. The star is where a group is joined. MeO(CH2CH2O)23CH2CH2CO = COCCOCCOCCOCCOCCOCCOCCOCCOCCOCCOCCOCCOCCOCCOCCOCCOCCOCCOCCOCCOCCOCCOCCOCCC(=O)*; CH3O(CH2CH2O)11CH2CH2CO = COCCOCCOCCOCCOCCOCCOCCOCCOCCOCCOCCOCCC(=O)*; X1 = O=C(Cn1cnc2ccc(N3CCN([*:1])CC3)cc2c1=O)[*:2]; Arachidoyl = CCCCCCCCCCCCCCCCCCCC(=O)*; NMeR = CN[C@@H](CCCNC(=N)N)C(=O)O; Cit = NC(=O)NCCC[C@H](N)C(=O)O; Guanidino = N=C(N)N*

Assays:
Format in all cases: cell-based
Y4R = Y4R (Homo sapiens, UniProt P50391); assay: CaFlux Assay (FLIPR), Y4R
Y4R, sequence (P50391 whole entry): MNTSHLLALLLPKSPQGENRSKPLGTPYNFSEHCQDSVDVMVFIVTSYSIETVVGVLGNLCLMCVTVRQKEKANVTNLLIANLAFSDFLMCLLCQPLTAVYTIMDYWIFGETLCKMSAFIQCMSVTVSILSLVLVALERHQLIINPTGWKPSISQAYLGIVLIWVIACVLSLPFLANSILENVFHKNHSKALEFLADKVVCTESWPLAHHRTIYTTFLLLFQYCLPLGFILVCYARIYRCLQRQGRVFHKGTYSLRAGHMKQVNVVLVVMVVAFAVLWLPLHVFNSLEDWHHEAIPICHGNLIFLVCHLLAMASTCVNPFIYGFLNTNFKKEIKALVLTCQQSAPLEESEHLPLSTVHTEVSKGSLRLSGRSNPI

hNPY2R [1] = target: T1, hNPY2R (Homo sapiens, UniProt P49146); assay: CaFlux Assay (FLIPR), Y2R; parameters: expressed in transfected cells; host or cells: HEK-293 stably transfected with G protein chimera Gαqi9
T1 sequence (P49146 1-381): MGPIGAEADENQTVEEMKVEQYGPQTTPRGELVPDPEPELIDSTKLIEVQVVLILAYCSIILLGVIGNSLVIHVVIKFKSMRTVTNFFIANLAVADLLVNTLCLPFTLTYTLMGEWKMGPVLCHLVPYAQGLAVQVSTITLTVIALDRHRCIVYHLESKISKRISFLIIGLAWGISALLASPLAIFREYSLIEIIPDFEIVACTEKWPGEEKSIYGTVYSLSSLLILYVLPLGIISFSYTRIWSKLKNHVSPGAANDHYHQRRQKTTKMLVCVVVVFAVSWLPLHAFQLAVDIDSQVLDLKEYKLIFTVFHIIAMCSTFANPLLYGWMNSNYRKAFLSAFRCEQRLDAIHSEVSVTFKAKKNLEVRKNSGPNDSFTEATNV
Outline: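 Intracellular calcium mobilisation was measured in HEK-293 cells engineered with Gαqi9 and the relevant receptor; responses were normalised as % of maximal positive-control signal.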

Y5R = target: T2, Y5R (Homo sapiens, UniProt Q15761); assay: CaFlux Assay (FLIPR), Y5R
T2 sequence (Q15761 1-445): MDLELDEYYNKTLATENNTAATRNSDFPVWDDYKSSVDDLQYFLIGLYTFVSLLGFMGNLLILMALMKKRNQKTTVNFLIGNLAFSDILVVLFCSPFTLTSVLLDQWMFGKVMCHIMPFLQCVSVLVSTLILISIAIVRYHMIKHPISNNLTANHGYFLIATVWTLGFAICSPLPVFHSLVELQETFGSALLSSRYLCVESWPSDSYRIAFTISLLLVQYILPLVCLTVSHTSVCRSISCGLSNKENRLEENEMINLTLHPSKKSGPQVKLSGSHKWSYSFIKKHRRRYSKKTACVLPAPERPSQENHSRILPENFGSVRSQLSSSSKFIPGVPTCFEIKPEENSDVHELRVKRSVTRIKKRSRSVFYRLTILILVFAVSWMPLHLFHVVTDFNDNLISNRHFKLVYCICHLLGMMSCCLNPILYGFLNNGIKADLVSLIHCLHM

Y1R = target: T3, Y1R (Homo sapiens, UniProt P25929); assay: CaFlux Assay (FLIPR), Y1R
T3 sequence (P25929 1-384): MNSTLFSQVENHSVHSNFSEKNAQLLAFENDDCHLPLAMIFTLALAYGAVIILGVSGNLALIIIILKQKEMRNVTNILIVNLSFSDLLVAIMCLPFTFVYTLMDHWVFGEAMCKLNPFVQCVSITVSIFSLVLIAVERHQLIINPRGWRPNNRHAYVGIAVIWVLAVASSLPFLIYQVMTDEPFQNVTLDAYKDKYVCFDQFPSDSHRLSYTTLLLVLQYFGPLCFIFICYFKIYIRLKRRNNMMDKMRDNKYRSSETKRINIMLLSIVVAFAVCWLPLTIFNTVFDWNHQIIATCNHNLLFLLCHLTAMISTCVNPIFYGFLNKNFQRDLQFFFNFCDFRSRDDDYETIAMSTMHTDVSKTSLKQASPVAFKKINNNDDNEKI

hNPY2R [2] = target: T1, hNPY2R; assay: cAMP Agonist Assay, HEK293/hNPY2R; parameters: expressed in transfected cells; host or cells: HEK293/hNPY2R (G418 selection)
Outline: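 HEK293/hNPY2R cells (10,000/well, overnight) stimulated 30 min at room temperature with compound plus 5 μM forskolin and 0.5 mM IBMX (1.1% DMSO final). Lysate cAMP measured by competitive chemiluminescent ELISA (AP conjugate, CSPD substrate); quadruplicates.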

CCCCCCCCCCCCCCCCCCCC(=O)N[C@@H](CCC(=O)O)C(=O)N[C@@H](CCC(=O)O)C(=O)N[C@H](C(=O)N[C@@H](CCCCNC(=O)CCOCCOCCOCCOCCOCCOCCOCCOCCOCCOCCOCCOCCOCCOCCOCCOCCOCCOCCOCCOCCOCCOCCOCCOC)C(=O)N1CCN(c2ccc3ncn(CC(=O)N[C@@H](CCCNC(N)=O)C(=O)N[C@@H](Cc4c[nH]cn4)C(=O)N[C@@H](Cc4ccc(O)cc4)C(=O)N[C@@H](CC(C)C)C(=O)N[C@@H](CC(N)=O)C(=O)N[C@@H](Cc4c[nH]c5ccccc45)C(=O)N[C@H](C(=O)N[C@H](C(=O)N[C@@H](CCC(=O)NC(=N)N)C(=O)N[C@@H](CCC(N)=O)C(=O)N(C)[C@@H](CCCNC(=N)N)C(=O)N[C@@H](Cc4ccc(O)cc4)C(N)=O)[C@@H](C)O)C(C)C)c(=O)c3c2)CC1)[C@@H](C)CC [Example 51] (Arachidoyl-EEIK(MeO(CH2CH2O)23CH2CH2CO)[X1][Cit]HYLNWVTE(Guanidino)Q[NMeR]Y-NH2)
EC50 (Y4R): > 6000 nM
EC50 (hNPY2R [1]): 9.4 nM
EC50 (Y5R): > 6000 nM
EC50 (Y1R): > 6000 nM
EC50 (hNPY2R [2]): 5.5 nM

CCCCCCCCCCCCCCCCCCCC(=O)N[C@@H](CCC(=O)O)C(=O)N[C@@H](CCC(=O)O)C(=O)N[C@H](C(=O)N[C@@H](CCCCNC(=O)CCOCCOCCOCCOCCOCCOCCOCCOCCOCCOCCOCCOCCOCCOCCOCCOCCOCCOCCOCCOCCOCCOCCOCCOC)C(=O)N1CCN(c2ccc3ncn(CC(=O)N[C@@H](CCCNC(=N)N)C(=O)N[C@@H](Cc4c[nH]cn4)C(=O)N[C@@H](Cc4ccc(O)cc4)C(=O)N[C@@H](CC(C)C)C(=O)N[C@@H](CC(N)=O)C(=O)N[C@@H](Cc4c[nH]c5ccccc45)C(=O)N[C@H](C(=O)N[C@H](C(=O)N[C@@H](CCCNC(=N)N)C(=O)N[C@@H](CCC(N)=O)C(=O)N(C)[C@@H](CCCNC(=N)N)C(=O)N[C@@H](Cc4ccc(O)cc4)C(N)=O)[C@@H](C)O)C(C)C)c(=O)c3c2)CC1)[C@@H](C)CC [Example 52]
EC50 (Y4R): > 9000 nM
EC50 (hNPY2R [1]): 0.147 nM
EC50 (Y5R): 4260 nM
EC50 (Y1R): > 9000 nM
EC50 (hNPY2R [2]): 0.2 nM

CCCCCCCCCCCCCCCCCCCC(=O)N[C@@H](CCC(=O)O)C(=O)N[C@@H](CCC(=O)O)C(=O)N[C@@H](C(=O)N[C@@H](CCCCNC(=O)CCOCCOCCOCCOCCOCCOCCOCCOCCOCCOCCOCCOCCOCCOCCOCCOCCOCCOCCOCCOCCOCCOCCOCCOC)C(=O)N1CCN(c2ccc3ncn(CC(=O)N[C@@H](CCCNC(=N)N)C(=O)N[C@@H](Cc4c[nH]cn4)C(=O)N[C@@H](Cc4ccc(O)cc4)C(=O)N[C@@H](CC(C)C)C(=O)N[C@@H](CC(N)=O)C(=O)N[C@@H](Cc4c[nH]c5ccccc45)C(=O)N[C@H](C(=O)N[C@H](C(=O)N[C@@H](CCCNC(=N)N)C(=O)N[C@@H](CCC(N)=O)C(=O)N(C)[C@@H](CCCNC(=N)N)C(=O)N[C@@H](Cc4ccc(O)cc4)C(N)=O)[C@@H](C)O)C(C)C)c(=O)c3c2)CC1)[C@@H](C)CC [Example 53]
EC50 (Y4R): > 6000 nM
EC50 (hNPY2R [1]): 0.66 nM
EC50 (Y5R): > 6000 nM
EC50 (Y1R): > 6000 nM
EC50 (hNPY2R [2]): 0.56 nM

CCCCCCCCCCCCCCCCCCCC(=O)N[C@@H](CCC(=O)O)C(=O)N[C@@H](CCC(=O)O)C(=O)N[C@H](C(=O)N[C@@H](CCCCNC(=O)CCOCCOCCOCCOCCOCCOCCOCCOCCOCCOCCOCCOC)C(=O)N1CCN(c2ccc3ncn(CC(=O)N[C@@H](CCCNC(=N)N)C(=O)N[C@@H](Cc4c[nH]cn4)C(=O)N[C@@H](Cc4ccc(O)cc4)C(=O)N[C@@H](Cc4c[nH]cn4)C(=O)N[C@@H](CC(N)=O)C(=O)N[C@@H](Cc4c[nH]c5ccccc45)C(=O)N[C@H](C(=O)N[C@H](C(=O)N[C@@H](CCCNC(=N)N)C(=O)N[C@@H](CCC(N)=O)C(=O)N[C@@H](CCCNC(=N)N)C(=O)N[C@@H](Cc4ccc(O)cc4)C(N)=O)[C@@H](C)O)C(C)C)c(=O)c3c2)CC1)[C@@H](C)CC [Example 55] (Arachidoyl-EEIK(CH3O(CH2CH2O)11CH2CH2CO)[X1]RHYHNWVTRQRY-NH2)
EC50 (Y4R): > 6000 nM
EC50 (hNPY2R [1]): 0.027 nM
EC50 (Y5R): 8.66 nM
EC50 (Y1R): > 6000 nM
EC50 (hNPY2R [2]): 0.014 nM

CCCCCCCCCCCCCCCCCCCC(=O)N[C@@H](CCC(=O)O)C(=O)N[C@@H](CCC(=O)O)C(=O)N[C@H](C(=O)N[C@@H](CCCCNC(=O)CCOCCOCCOCCOCCOCCOCCOCCOCCOCCOCCOCCOCCOCCOCCOCCOC)C(=O)N1CCN(c2ccc3ncn(CC(=O)N[C@@H](CCCNC(=N)N)C(=O)N[C@@H](Cc4c[nH]cn4)C(=O)N[C@@H](Cc4ccc(O)cc4)C(=O)N[C@@H](Cc4c[nH]cn4)C(=O)N[C@@H](CC(N)=O)C(=O)N[C@@H](Cc4c[nH]c5ccccc45)C(=O)N[C@H](C(=O)N[C@H](C(=O)N[C@@H](CCCNC(=N)N)C(=O)N[C@@H](CCC(N)=O)C(=O)N[C@@H](CCCNC(=N)N)C(=O)N[C@@H](Cc4ccc(O)cc4)C(N)=O)[C@@H](C)O)C(C)C)c(=O)c3c2)CC1)[C@@H](C)CC [Example 56]
EC50 (Y4R): > 6000 nM
EC50 (hNPY2R [1]): 0.098 nM
EC50 (Y5R): 8.73 nM
EC50 (Y1R): > 6000 nM
EC50 (hNPY2R [2]): 0.013 nM

CCCCCCCCCCCCCCCCCCCC(=O)N[C@@H](CCC(=O)O)C(=O)N[C@@H](CCC(=O)O)C(=O)N[C@H](C(=O)N[C@@H](CCCCNC(=O)CCOCCOCCOCCOCCOCCOCCOCCOCCOCCOCCOCCOCCOCCOCCOCCOCCOCCOCCOCCOCCOCCOCCOCCOC)C(=O)N1CCN(c2ccc3ncn(CC(=O)N[C@@H](CCCNC(=N)N)C(=O)N[C@@H](Cc4c[nH]cn4)C(=O)N[C@@H](Cc4ccc(O)cc4)C(=O)N[C@@H](Cc4c[nH]cn4)C(=O)N[C@@H](CC(N)=O)C(=O)N[C@@H](Cc4c[nH]c5ccccc45)C(=O)N[C@H](C(=O)N[C@H](C(=O)N[C@@H](CCCNC(=N)N)C(=O)N[C@@H](CCC(N)=O)C(=O)N[C@@H](CCCNC(=N)N)C(=O)N[C@@H](Cc4ccc(O)cc4)C(N)=O)[C@@H](C)O)C(C)C)c(=O)c3c2)CC1)[C@@H](C)CC [Example 57] (Arachidoyl-EEIK(MeO(CH2CH2O)23CH2CH2CO)[X1]RHYHNWVTRQRY-NH2)
EC50 (Y4R): > 6000 nM
EC50 (hNPY2R [1]): 0.016 nM
EC50 (Y5R): 5.67 nM
EC50 (Y1R): > 6000 nM
EC50 (hNPY2R [2]): 0.011 nM

CCCCCCCCCCCCCCCCCCCC(=O)N[C@@H](CCC(=O)N[C@@H](CCC(=O)N[C@H](C(=O)N[C@@H](CCCCNC(=O)CCOCCOCCOCCOCCOCCOCCOCCOCCOCCOCCOCCOC)C(=O)N1CCN(c2ccc3ncn(CC(=O)N[C@@H](CCCNC(=N)N)C(=O)N[C@@H](Cc4c[nH]cn4)C(=O)N[C@@H](Cc4ccc(O)cc4)C(=O)N[C@@H](CC(C)C)C(=O)N[C@@H](CC(N)=O)C(=O)N[C@@H](Cc4c[nH]c5ccccc45)C(=O)N[C@H](C(=O)N[C@H](C(=O)N[C@@H](CCCNC(=N)N)C(=O)N[C@@H](CCC(N)=O)C(=O)N(C)[C@@H](CCCNC(=N)N)C(=O)N[C@@H](Cc4ccc(O)cc4)C(N)=O)[C@@H](C)O)C(C)C)c(=O)c3c2)CC1)[C@@H](C)CC)C(=O)O)C(=O)O [Example 58]
EC50 (Y4R): > 9000 nM
EC50 (hNPY2R [1]): 0.114 nM
EC50 (Y5R): 4180 nM
EC50 (Y1R): > 9000 nM
EC50 (hNPY2R [2]): 0.21 nM

CCCCCCCCCCCCCCCCCCCC(=O)N[C@@H](CCC(=O)N[C@@H](CCC(=O)N[C@H](C(=O)N[C@@H](CCCCNC(=O)CCOCCOCCOCCOCCOCCOCCOCCOCCOCCOCCOCCOCCOCCOCCOCCOC)C(=O)N1CCN(c2ccc3ncn(CC(=O)N[C@@H](CCCNC(=N)N)C(=O)N[C@@H](Cc4c[nH]cn4)C(=O)N[C@@H](Cc4ccc(O)cc4)C(=O)N[C@@H](CC(C)C)C(=O)N[C@@H](CC(N)=O)C(=O)N[C@@H](Cc4c[nH]c5ccccc45)C(=O)N[C@H](C(=O)N[C@H](C(=O)N[C@@H](CCCNC(=N)N)C(=O)N[C@@H](CCC(N)=O)C(=O)N(C)[C@@H](CCCNC(=N)N)C(=O)N[C@@H](Cc4ccc(O)cc4)C(N)=O)[C@@H](C)O)C(C)C)c(=O)c3c2)CC1)[C@@H](C)CC)C(=O)O)C(=O)O [Example 59]
EC50 (Y4R): > 9000 nM
EC50 (hNPY2R [1]): 0.285 nM
EC50 (Y5R): 3880 nM
EC50 (Y1R): > 9000 nM
EC50 (hNPY2R [2]): 0.29 nM
